From patent US11524968B2, “Heterocyclic compound as a protein kinase inhibitor” (HK inno.N Corporation, priority 2017, dated 2022) come the findings set out here.

This assay addresses JAK1 (Homo sapiens (Human), UniProt P23458). Description: Analysis of JAK1 activity inhibition ability (ADP-Glo Kinase Assay). Type of assay: biochemical. To be noted: JAK1 enzyme, ADP-Glo luminescence, ATP 250 uM, IRS-itide substrate, 30° C. 40 minutes; read-out: IC50. The essentials:
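JAK1 enzyme, IRS-itide substrate (40 ng/mL) and 250 uM ATP, both as prepared in kinase buffer (Tris-HCl pH 7.5, MgCl2, BSA, DTT), reacted with compound 40 min at 30 °C. ADP formed was detected by ADP-Glo luminescence; IC50 is the concentration giving 50% inhibition versus control.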
(In general: ADP-Glo first removes unused ATP, then detects ADP through luciferase.)

JAK1, sequence (P23458 whole entry): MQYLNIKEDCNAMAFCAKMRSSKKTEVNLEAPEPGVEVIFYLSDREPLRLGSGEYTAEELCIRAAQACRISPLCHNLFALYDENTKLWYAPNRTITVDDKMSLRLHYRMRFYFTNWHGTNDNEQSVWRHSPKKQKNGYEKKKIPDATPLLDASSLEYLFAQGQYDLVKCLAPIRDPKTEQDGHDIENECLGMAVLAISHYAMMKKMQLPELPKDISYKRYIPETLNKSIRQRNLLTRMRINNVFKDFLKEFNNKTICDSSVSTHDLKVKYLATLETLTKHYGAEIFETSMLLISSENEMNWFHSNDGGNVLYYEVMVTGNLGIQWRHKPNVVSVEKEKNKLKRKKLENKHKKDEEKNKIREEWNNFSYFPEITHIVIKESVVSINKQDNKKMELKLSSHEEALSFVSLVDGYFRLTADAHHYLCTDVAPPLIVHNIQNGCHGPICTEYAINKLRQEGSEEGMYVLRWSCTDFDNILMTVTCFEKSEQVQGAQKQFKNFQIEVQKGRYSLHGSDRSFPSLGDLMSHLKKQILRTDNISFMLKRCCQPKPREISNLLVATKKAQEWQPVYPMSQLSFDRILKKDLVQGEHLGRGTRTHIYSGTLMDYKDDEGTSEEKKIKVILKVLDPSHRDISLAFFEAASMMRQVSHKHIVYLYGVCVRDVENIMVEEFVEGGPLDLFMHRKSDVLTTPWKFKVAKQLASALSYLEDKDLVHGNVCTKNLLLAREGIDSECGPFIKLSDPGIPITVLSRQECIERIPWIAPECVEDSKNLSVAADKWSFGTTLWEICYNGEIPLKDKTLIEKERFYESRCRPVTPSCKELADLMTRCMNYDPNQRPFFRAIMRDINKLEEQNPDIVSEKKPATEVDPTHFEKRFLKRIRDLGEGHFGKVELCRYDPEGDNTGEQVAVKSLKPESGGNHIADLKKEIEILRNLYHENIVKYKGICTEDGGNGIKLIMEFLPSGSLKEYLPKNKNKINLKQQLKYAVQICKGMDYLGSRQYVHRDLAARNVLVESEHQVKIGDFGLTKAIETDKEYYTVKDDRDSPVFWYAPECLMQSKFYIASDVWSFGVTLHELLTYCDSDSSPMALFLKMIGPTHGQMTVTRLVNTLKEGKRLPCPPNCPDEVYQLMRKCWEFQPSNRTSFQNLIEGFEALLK

Usually IC50 stands for the concentration at which inhibition is half-maximal. Regarding `N#CCC1(CS(=O)(=O)Nc2c(F)cc(-c3cc(NC(=O)C4CC4)nc4[nH]ccc34)cc2F)CC1` [Example 108, N-(4-(4-(((1-(cyanomethyl)cyclopropyl)methyl)sulfonamido)-3,5-difluorophenyl)-1H-pyrrolo[2,3-b]pyridin-6-yl)cyclopropanecarboxamide], the concentration for half-maximal inhibition (IC50) was under 20 nM. Then `CCc1cc(NS(=O)(=O)CC2(C#N)CC2)ccc1-c1cc(NC(=O)C2CC2)nc2[nH]ccc12` [Example 109, N-(4-(4-(((1-cyanocyclopropyl)methyl)sulfonamido)-2-ethylphenyl)-1H-pyrrolo[2,3-b]pyridin-6-yl)cyclopropanecarboxamide], with under 20 nM. Then `CCc1cc(NS(=O)(=O)CC2(CC#N)CC2)ccc1-c1cc(NC(=O)C2CC2)nc2[nH]ccc12` [Example 110, N-(4-(4-(((1-(cyanomethyl)cyclopropyl)methyl)sulfonamido)-2-ethylphenyl)-1H-pyrrolo[2,3-b]pyridin-6-yl)cyclopropanecarboxamide], with under 20 nM; and `CCc1cc(NS(=O)(=O)CCCC#N)ccc1-c1cc(NC(=O)C2CC2)nc2[nH]ccc12` [Example 111, N-(4-(4-((3-cyanopropyl)sulfonamido)-2-ethylphenyl)-1H-pyrrolo[2,3-b]pyridin-6-yl)cyclopropanecarboxamide], with under 20 nM. With `CCc1cc(NS(=O)(=O)C2CCCCC2)ccc1-c1cc(NC(=O)C2CC2)nc2[nH]ccc12` [Example 112, N-(4-(4-(cyclohexanesulfonamido)-2-ethylphenyl)-1H-pyrrolo[2,3-b]pyridin-6-yl)cyclopropanecarboxamide] the figure was 20 to 200 nM; with `CCc1cc(NS(=O)(=O)C2CC2)ccc1-c1cc(NC(=O)C2CC2)nc2[nH]ccc12` [Example 113, N-(4-(4-(cyclopropanesulfonamido)-2-ethylphenyl)-1H-pyrrolo[2,3-b]pyridin-6-yl)cyclopropanecarboxamide], under 20 nM. `CCc1cc(NS(=O)(=O)C2CCC2)ccc1-c1cc(NC(=O)C2CC2)nc2[nH]ccc12` [Example 114, N-(4-(4-(cyclobutanesulfonamido)-2-ethylphenyl)-1H-pyrrolo[2,3-b]pyridin-6-yl)cyclopropanecarboxamide]: the 50% inhibitory concentration (IC50) is under 20 nM.

In the case of `CCCS(=O)(=O)Nc1ccc(-c2cc(NC(=O)C3CC3)nc3[nH]ccc23)c(CC)c1` [Example 115, N-(4-(2-ethyl-4-(propylsulfonamido)phenyl)-1H-pyrrolo[2,3-b]pyridin-6-yl)cyclopropanecarboxamide], the IC50 was under 20 nM. Then `CCCCS(=O)(=O)Nc1ccc(-c2cc(NC(=O)C3CC3)nc3[nH]ccc23)c(CC)c1` [Example 116, N-(4-(4-(butylsulfonamido)-2-ethylphenyl)-1H-pyrrolo[2,3-b]pyridin-6-yl)cyclopropanecarboxamide], with 20 to 200 nM; and `Cc1cc(NS(=O)(=O)CCCC(F)(F)F)ccc1-c1cc(NC(=O)C2CC2)nc2[nH]ccc12` [Example 117, N-(4-(2-methyl-4-((4,4,4-trifluorobutyl)sulfonamido)phenyl)-1H-pyrrolo[2,3-b]pyridin-6-yl)cyclopropanecarboxamide], with under 20 nM.

`O=C(Nc1cc(-c2ccc(NS(=O)(=O)C3CC3)cc2C(F)(F)F)c2cc[nH]c2n1)C1CC1` [Example 118, N-(4-(4-(cyclopropanesulfonamido)-2-(trifluoromethyl)phenyl)-1H-pyrrolo[2,3-b]pyridin-6-yl)cyclopropanecarboxamide]: the IC50 lay within 20 to 200 nM. For the compound `CCCS(=O)(=O)Nc1ccc(-c2cc(NC(=O)C3CC3)nc3[nH]ccc23)c(C(F)(F)F)c1` [Example 119, N-(4-(4-(propylsulfonamido)-2-(trifluoromethyl)phenyl)-1H-pyrrolo[2,3-b]pyridin-6-yl)cyclopropanecarboxamide], the half-inhibitory concentration (IC50) lay within 20 to 200 nM.

Regarding `O=C(Nc1cc(-c2ccc(NS(=O)(=O)C3CCC3)cc2C(F)(F)F)c2cc[nH]c2n1)C1CC1` [Example 120, N-(4-(4-(cyclobutanesulfonamido)-2-(trifluoromethyl)phenyl)-1H-pyrrolo[2,3-b]pyridin-6-yl)cyclopropanecarboxamide], the 50% inhibitory concentration (IC50) was in the range of 20 to 200 nM. Then `O=C(Nc1cc(-c2ccc(NS(=O)(=O)c3ccc(F)c(F)c3)cc2C(F)(F)F)c2cc[nH]c2n1)C1CC1` [Example 121, N-(4-(4-((3,4-difluorophenyl)sulfonamido)-2-(trifluoromethyl)phenyl)-1H-pyrrolo[2,3-b]pyridin-6-yl)cyclopropanecarboxamide], with 20 to 200 nM; and `O=C(Nc1cc(-c2ccc(NS(=O)(=O)c3cccc(F)c3)cc2C(F)(F)F)c2cc[nH]c2n1)C1CC1` [Example 122, N-(4-(4-((3-fluorophenyl)sulfonamido)-2-(trifluoromethyl)phenyl)-1H-pyrrolo[2,3-b]pyridin-6-yl)cyclopropanecarboxamide], with 20 to 200 nM; and `CCc1cc(-c2cc(NC(=O)C3CC3)nc3[nH]ccc23)ccc1NS(=O)(=O)CC1(C#N)CC1` [Example 123, N-(4-(4-(((1-cyanocyclopropyl)methyl)sulfonamido)-3-ethylphenyl)-1H-pyrrolo[2,3-b]pyridin-6-yl)cyclopropanecarboxamide], with under 20 nM. With `CCc1cc(-c2cc(NC(=O)C3CC3)nc3[nH]ccc23)ccc1NS(=O)(=O)CC` [Example 124, N-(4-(3-ethyl-4-(ethylsulfonamido)phenyl)-1H-pyrrolo[2,3-b]pyridin-6-yl)cyclopropanecarboxamide] the figure was under 20 nM; with `CCc1cc(-c2cc(NC(=O)C3CC3)nc3[nH]ccc23)ccc1NS(=O)(=O)C1CC1` [Example 125, N-(4-(4-(cyclopropanesulfonamido)-3-ethylphenyl)-1H-pyrrolo[2,3-b]pyridin-6-yl)cyclopropanecarboxamide], under 20 nM; with `CCCS(=O)(=O)Nc1ccc(-c2cc(NC(=O)C3CC3)nc3[nH]ccc23)cc1CC` [Example 126, N-(4-(3-ethyl-4-(propylsulfonamido)phenyl)-1H-pyrrolo[2,3-b]pyridin-6-yl)cyclopropanecarboxamide], under 20 nM. With `CCCCS(=O)(=O)Nc1ccc(-c2cc(NC(=O)C3CC3)nc3[nH]ccc23)cc1CC` [Example 127, N-(4-(4-(butylsulfonamido)-3-ethylphenyl)-1H-pyrrolo[2,3-b]pyridin-6-yl)cyclopropanecarboxamide], the IC50 was in the range of 20 to 200 nM. Then `CCc1cc(-c2cc(NC(=O)C3CC3)nc3[nH]ccc23)ccc1NS(=O)(=O)C1CCC1` [Example 128, N-(4-(4-(cyclobutanesulfonamido)-3-ethylphenyl)-1H-pyrrolo[2,3-b]pyridin-6-yl)cyclopropanecarboxamide], with under 20 nM; and `CS(=O)(=O)Nc1ccc(-c2cc(NC(=O)C3CC3)nc3[nH]ccc23)cc1-c1ccccc1` [Example 129, N-(4-(6-(methylsulfonamido)-[1,1′-biphenyl]-3-yl)-1H-pyrrolo[2,3-b]pyridin-6-yl)cyclopropanecarboxamide], with over 200 nM; and `O=C(Nc1cc(-c2ccc(NS(=O)(=O)C3CC3)c(-c3ccccc3)c2)c2cc[nH]c2n1)C1CC1` [Example 130, N-(4-(6-(cyclopropanesulfonamido)-[1,1′-biphenyl]-3-yl)-1H-pyrrolo[2,3-b]pyridin-6-yl)cyclopropanecarboxamide], with over 200 nM.
